Assay results taken from ChEMBL document CHEMBL1201862, “PubChem BioAssay data set” (2004).
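Tested at 5 concentrations; 48 h exposure; 96-well plates; endpoints linearly interpolated, else capped at highest concentration. The concentration for 50% growth inhibition is given as GI50.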 Activity calls are given as the source filed them. Rule as the data show it: active = GI50 up to about 1.1 µM and inactive = higher.

Key:
Assay in all cases: DTP human tumour cell line panel, 48 h
[1] = test system: 786-0
[2] = test system: A498
[3] = test system: A549
[4] = test system: ACHN
[5] = test system: BT-549
[6] = test system: CAKI-1
[7] = test system: CCRF-CEM
[8] = test system: COLO 205
[9] = test system: DU-145
[10] = test system: EKVX
[11] = test system: HCC 2998
[12] = test system: HCT-116
[13] = test system: HCT-15
[14] = test system: HL-60
[15] = test system: HOP-62
[16] = test system: HOP-92
[17] = test system: HT-29
[18] = test system: Hs-578T
[19] = test system: IGROV-1
[20] = test system: K562
[21] = test system: KM12
[22] = test system: LOX IMVI
[23] = test system: M14
[24] = test system: MCF7
[25] = test system: MDA-MB-231
[26] = test system: MDA-MB-435
[27] = test system: MDA-N
[28] = test system: MOLT-4
[29] = test system: Malme-3M
[30] = test system: NCI-H226
[31] = test system: NCI-H23
[32] = test system: NCI-H460
[33] = test system: NCI-H522
[34] = test system: NCI/ADR-RES
[35] = test system: OVCAR-3
[36] = test system: OVCAR-4
[37] = test system: OVCAR-5
[38] = test system: OVCAR-8
[39] = test system: PC-3
[40] = test system: RPMI-8226
[41] = test system: RXF 393
[42] = test system: SF-268
[43] = test system: SF-295
[44] = test system: SF-539
[45] = test system: SK-MEL-28
[46] = test system: SK-MEL-2
[47] = test system: SK-MEL-5
[48] = test system: SK-OV-3
[49] = test system: SN12C
[50] = test system: SNB-19
[51] = test system: SNB-75
[52] = test system: SR
[53] = test system: SW-620
[54] = test system: T47D
[55] = test system: TK-10
[56] = test system: U-251
[57] = test system: UACC-257
[58] = test system: UACC-62
[59] = test system: UO-31

In the case of `CC1(C)C2CCC1(CS(=O)(=O)Nc1ccccc1)C(=O)C2` (stereo not given), the GI50 [1] is reported as > 100 µM (inactive), the GI50 [2] is reported as > 100 µM (inactive) and the GI50 [3] is reported as > 100 µM (inactive). The GI50 [4] was > 100 µM (inactive), the GI50 [5] was > 100 µM (inactive) and the GI50 [6] was > 100 µM (inactive). For the same compound, the GI50 [7] was 11.7 µM (inactive), the GI50 [8] was > 100 µM (inactive) and the GI50 [9] was > 100 µM (inactive). For the same compound, the GI50 [10] was > 100 µM (inactive), the GI50 [11] was > 100 µM (inactive) and the GI50 [12] was > 100 µM (inactive). The GI50 [13] was greater than 100 µM, the GI50 [14] was > 100 µM (inactive) and the GI50 [15] was > 100 µM (inactive). The GI50 [16] was > 100 µM (inactive), the GI50 [17] was > 100 µM (inactive) and the GI50 [18] was > 100 µM (inactive). For the same compound, the GI50 [19] was > 100 µM (inactive), the GI50 [20] was > 100 µM (inactive) and the GI50 [21] was > 100 µM (inactive). For the same compound, the GI50 [22] was > 100 µM (inactive), the GI50 [23] was > 100 µM (inactive) and the GI50 [24] was > 100 µM (inactive). The GI50 [25] was > 100 µM (inactive), the GI50 [26] was > 100 µM (inactive) and the GI50 [27] was > 100 µM (inactive). For the same compound, the GI50 [28] was > 100 µM (inactive), the GI50 [29] was > 100 µM (inactive) and the GI50 [30] was > 100 µM (inactive). For the same compound, the GI50 [31] was > 100 µM (inactive), the GI50 [32] was > 100 µM (inactive) and the GI50 [33] was > 100 µM (inactive). For the same compound, the GI50 [34] was > 100 µM (inactive), the GI50 [35] was > 100 µM (inactive) and the GI50 [36] was > 100 µM (inactive). The GI50 [37] was > 100 µM (inactive), the GI50 [38] was > 100 µM (inactive) and the GI50 [39] was > 100 µM (inactive). The GI50 [40] was > 100 µM (inactive), the GI50 [41] was > 100 µM (inactive) and the GI50 [42] was > 100 µM (inactive). For the same compound, the GI50 [43] was > 100 µM (inactive), the GI50 [44] was > 100 µM (inactive) and the GI50 [45] was > 100 µM (inactive). The GI50 [46] was > 100 µM (inactive), the GI50 [47] was > 100 µM (inactive) and the GI50 [48] was > 100 µM (inactive). For the same compound, the GI50 [49] was > 100 µM (inactive), the GI50 [50] was > 100 µM (inactive) and the GI50 [51] was 89.9 µM (inactive). The GI50 [52] was 35.5 µM (inactive), the GI50 [53] was > 100 µM (inactive) and the GI50 [54] was > 100 µM (inactive). For the same compound, the GI50 [55] was > 100 µM (inactive), the GI50 [56] was > 100 µM (inactive) and the GI50 [57] was > 100 µM (inactive). For the same compound, the GI50 [58] was > 100 µM (inactive) and the GI50 [59] was 75.9 µM (inactive).
For `COc1ccc(C2(CC(C)O)SCCCS2)cc1` (stereo not given), the GI50 [1] was > 100 µM (inactive), the GI50 [2] was > 100 µM (inactive) and the GI50 [3] was > 100 µM (inactive). For the same compound, the GI50 [4] was > 100 µM (inactive), the GI50 [5] was > 100 µM (inactive) and the GI50 [6] was > 100 µM (inactive). For the same compound, the GI50 [7] was 63.1 µM (inactive), the GI50 [8] was > 100 µM (inactive) and the GI50 [9] was > 100 µM (inactive). The GI50 [10] was > 100 µM (inactive), the GI50 [11] was > 100 µM (inactive) and the GI50 [12] was > 100 µM (inactive). For the same compound, the GI50 [13] was greater than 100 µM, the GI50 [14] was 37.2 µM (inactive) and the GI50 [15] was > 100 µM (inactive). The GI50 [16] was > 100 µM (inactive), the GI50 [17] was > 100 µM (inactive) and the GI50 [18] was > 100 µM (inactive). The GI50 [19] was > 100 µM (inactive), the GI50 [20] was > 100 µM (inactive) and the GI50 [21] was > 100 µM (inactive). The GI50 [23] was > 100 µM (inactive), the GI50 [24] was > 100 µM (inactive) and the GI50 [25] was > 100 µM (inactive). The GI50 [26] was > 100 µM (inactive), the GI50 [27] was > 100 µM (inactive) and the GI50 [28] was 42 µM (inactive). For the same compound, the GI50 [29] was > 100 µM (inactive), the GI50 [30] was > 100 µM (inactive) and the GI50 [31] was > 100 µM (inactive). The GI50 [32] was > 100 µM (inactive), the GI50 [33] was > 100 µM (inactive) and the GI50 [34] was > 100 µM (inactive). The GI50 [35] was > 100 µM (inactive), the GI50 [36] was > 100 µM (inactive) and the GI50 [37] was > 100 µM (inactive). The GI50 [38] was > 100 µM (inactive), the GI50 [39] was 92.7 µM (inactive) and the GI50 [40] was > 100 µM (inactive). The GI50 [41] was > 100 µM (inactive), the GI50 [42] was > 100 µM (inactive) and the GI50 [43] was > 100 µM (inactive). The GI50 [44] was > 100 µM (inactive), the GI50 [45] was > 100 µM (inactive) and the GI50 [46] was > 100 µM (inactive). For the same compound, the GI50 [47] was > 100 µM (inactive), the GI50 [48] was > 100 µM (inactive) and the GI50 [49] was > 100 µM (inactive). For the same compound, the GI50 [50] was > 100 µM (inactive), the GI50 [51] was > 100 µM (inactive) and the GI50 [52] was > 100 µM (inactive). For the same compound, the GI50 [53] was > 100 µM (inactive), the GI50 [54] was > 100 µM (inactive) and the GI50 [55] was > 100 µM (inactive). The GI50 [56] was > 100 µM (inactive), the GI50 [57] was > 100 µM (inactive) and the GI50 [58] was > 100 µM (inactive). For the same compound, the GI50 [59] was > 100 µM (inactive).
For `COC(=O)c1csc([C@@H](OC(=O)[C@H](C)[C@H](CCCC(C)(Cl)Cl)OC(=O)c2csc([C@H](O)CO)n2)C(C)C)n1`, the GI50 [1] was 14 µM (inactive), the GI50 [2] was 18.3 µM (inactive) and the GI50 [3] was 17.9 µM (inactive). The GI50 [4] was 13.1 µM (inactive), the GI50 [5] was 17.1 µM (inactive) and the GI50 [6] was 17.7 µM (inactive). The GI50 [7] was 17.2 µM (inactive), the GI50 [8] was 17.8 µM (inactive) and the GI50 [9] was 12.3 µM (inactive). For the same compound, the GI50 [10] was 17.1 µM (inactive), the GI50 [11] was 10.2 µM (inactive) and the GI50 [13] was 16.4 µM. The GI50 [14] was 17.9 µM (inactive), the GI50 [15] was 18.4 µM (inactive) and the GI50 [16] was 10.7 µM (inactive). For the same compound, the GI50 [17] was 17.6 µM (inactive), the GI50 [18] was 2.11 µM (inactive) and the GI50 [19] was 11.3 µM (inactive). For the same compound, the GI50 [20] was 16.4 µM (inactive), the GI50 [21] was 15.7 µM (inactive) and the GI50 [22] was 10.5 µM (inactive). For the same compound, the GI50 [23] was 17.8 µM (inactive), the GI50 [24] was 18 µM (inactive) and the GI50 [25] was 17.6 µM (inactive). For the same compound, the GI50 [26] was 13.6 µM (inactive), the GI50 [27] was 7.94 µM (inactive) and the GI50 [28] was 16.3 µM (inactive). For the same compound, the GI50 [29] was 17.3 µM (inactive), the GI50 [30] was 19.2 µM (inactive) and the GI50 [31] was 16.4 µM (inactive). The GI50 [32] was 9.89 µM (inactive), the GI50 [33] was 16.8 µM (inactive) and the GI50 [34] was 18.3 µM (inactive). For the same compound, the GI50 [35] was 15 µM (inactive), the GI50 [36] was 10 µM (inactive) and the GI50 [37] was 15.5 µM (inactive). The GI50 [38] was 4.61 µM (inactive), the GI50 [39] was 13.6 µM (inactive) and the GI50 [40] was 15.2 µM (inactive). The GI50 [41] was 1.89 µM (inactive), the GI50 [42] was 17.7 µM (inactive) and the GI50 [43] was 15.7 µM (inactive). The GI50 [44] was 2.92 µM (inactive), the GI50 [45] was 11.8 µM (inactive) and the GI50 [46] was 15.3 µM (inactive). The GI50 [47] was 17.9 µM (inactive), the GI50 [48] was 16.2 µM (inactive) and the GI50 [49] was 1.99 µM (inactive). The GI50 [50] was 13.6 µM (inactive), the GI50 [51] was 1.39 µM (inactive) and the GI50 [52] was 13.7 µM (inactive). The GI50 [53] was 17.9 µM (inactive), the GI50 [54] was 20.7 µM (inactive) and the GI50 [55] was 12.4 µM (inactive). For the same compound, the GI50 [56] was 17.8 µM (inactive), the GI50 [57] was 11 µM (inactive) and the GI50 [58] was 11.6 µM (inactive). For the same compound, the GI50 [59] was 6.93 µM (inactive).
